SMILES strings stand for the structures.

Common to all, as to format: in vivo, human
The test system of one assay is MMP-1. Description: Study 2: MMP-1 ELISA in interstitial fluid, effect of supplementation. Conditions: for Concentration of MMP-1 (log), MEAN: Supplement Yes. How it is done:
(§1) The laser made four pores at each collection site.
(§2) The other skin analytes were measured in Study 2 using standard ELISA kits: MMP-1 (ELISA Cat # QIA55, Oncogene Research Products, Cambridge Mass.); Total IgE (ELISA Cat # RE59061, IBL, Hamburg, Germany distributed by KMI Diagnostics); Non Extraction IGF-1 (ELISA Cat # DSL-10-2800, Diagnostics Systems Laboratories, Webster Tex.); IL-1 RA (ELISA Cat # DRA00, R&D Systems, Minneapolis, Minn.); IL-1A (ELISA Cat # EH2IL1A, Pierce/Endogen, Rockford, Ill.).
Background: In an ELISA, binding on a coated surface is turned into a signal by an enzyme label.

The subject of the next assay is IL-1 RA. Description: Study 2: IL-1 RA ELISA in interstitial fluid, effect of supplementation. Particulars: for Concentration of IL-1 RA (log), MEAN: Supplement Yes. How it is done: as §1, §2
The test system of the next assay is IgE. Description: Study 2: Total IgE ELISA in interstitial fluid, effect of supplementation. Particulars: for Concentration of IgE (log), MEAN: Supplement Yes. As to the method:
as §1, §2

A further assay deals with IGF-1. Description: Study 2: IGF-1 ELISA in interstitial fluid, effect of supplementation. Conditions: Supplement Yes. As to the method: as §1, §2
The next assay has as its system IL-1A. Description: Study 2: IL-1A ELISA in interstitial fluid, effect of supplementation. Conditions: for Concentration of IL-1A (log), MEAN: Supplement Yes. As to the method: as §1, §2

On to `O=C1O[C@H]([C@@H](O)CO)C(O)=C1O` [Vitamin C], for which the “Effect of vitamin C supplement on concentration of MMP-1 in ISF” value in the assay on MMP-1 is “significantly increased”. For the same compound, the “Concentration of MMP-1 (log), MEAN” value in the assay on MMP-1 (sun-exposed site ISF) is on record as 0.64; in the assay on MMP-1 (sun-protected site ISF) it was 0.91. Moreover, the “Effect of vitamin C supplement on concentration of IL-1 RA in ISF” value with IL-1 RA is given as “significantly increased”. The figures for the “Concentration of IL-1 RA (log), MEAN” value in the assay with IL-1 RA (sun-exposed site ISF) and in the assay with IL-1 RA (sun-protected site ISF) were 10140 and 9492, respectively. Also, the “Effect of vitamin C supplement on concentration of IgE in ISF” value in the assay with IgE is on record as “significantly increased”. Moreover, the “Concentration of IgE (log), MEAN” value in the assay on IgE (sun-exposed site ISF) was found to be 4.94; in the assay on IgE (sun-protected site ISF), 18.50. The figures for the “Concentration of IGF-1, MEAN” value in the assay on IGF-1 (sun-exposed site ISF) and with IGF-1 (sun-protected site ISF) were 76.83 and 97.78, respectively. Moreover, in the assay on IL-1A, the “Effect of vitamin C supplement on concentration of IL-1A in ISF” value is “significantly increased”. The “Concentration of IL-1A (log), MEAN” value in the assay with IL-1A (sun-exposed site ISF) came to 120.24; in the assay on IL-1A (sun-protected site ISF), 191.5.

The record behind these values is patent US20030078518A1, “Method of treating the skin of a subject” (priority 2001, published 2003).
